Test results from BindingDB's records for doi:10.1128/AAC.01293-09 (Glaxosmithkline, 2010).

Key:
[1] = Inhibition of HIV1 HXB2 gp120-mediated viral infusion into HEK293 cells after 24 hrs by luciferase reporter gene assay in presence of 45 mg/ml human serum albumin
[2] = Inhibition of CXCR4-mediated chemotaxis in SDF1-stimulated human U937 cells treated 15 mins before SDF1 challenge measured after 2 hrs by luminescence assay
[3] = Inhibition of HIV1 HXB2 gp120-mediated viral infusion into HEK293 cells after 24 hrs by luciferase reporter gene assay

CN1CCN(c2cccc3nc(CN(C)[C@H]4CCCc5cccnc54)c(CO)n23)CC1 [([5-(4-Methyl-1-piperazinyl)-2-({methyl[(8S)-5,6,7,8-tetrahydro-8-quinolinyl]amino}methyl)imidazo[1,2-a]pyridin-3-yl]methanol)] gave an IC50 [1] of 1.71 nM, an IC50 [2] of 0.34 nM and an IC50 [3] of 0.56 nM.
